In ChEMBL document CHEMBL1147445, “Antagonists of human CCR5 receptor containing 4-(pyrazolyl)piperidine side chains. Part 2: Discovery of potent, selective, and orally bioavailable compounds” (Bioorg Med Chem Lett, 2004):

Key:
[1] = in vivo; conditions: rat
[2] = Inhibition of HIV-1 infectivity using peripheral bloodmonon uclear cells against the BAL-1 strain; type: functional; conditions: Homo sapiens
[3] = tested on: Rattus norvegicus; assay: Volumes of distribution in rat after po administration; conditions: in vivo
[4] = tested on: Rattus norvegicus; assay: Area under curve in rat after p.o. administration; conditions: in vivo, po
[5] = Inhibition of HIV-1 infectivity using peripheral bloodmonon uclear cells against the BAL-1 strain in the presence of 50% normal human serum (NHS); type: functional
[6] = target: T1, C-C chemokine receptor type 5 (Homo sapiens, UniProt P51681); assay: Inhibitory concentration of compound to displace GP120 from […] chemokine receptor 5
[7] = tested on: HeLa; assay: In vitro antiviral activity against HIV-1 infected HeLa cells; type: functional; conditions: Homo sapiens
[8] = in vivo; conditions: rat, plasma
[9] = Oral bioavailability in rat; conditions: in vivo
[10] = target: T1, C-C chemokine receptor type 5; assay: Displacement of [125I]-MIP-1 alpha from human […] chemokine receptor 5 expressed in CHO cells; type: cell-based
[11] = Clearance rat (dosed at 0.5 mpk IV and 2.0 mpk po.); type: ADME, organism-based; conditions: plasma, 0.5 mg/kg, read-out: Clp
[12] = tested on: Canis familiaris; assay: Oral AUCN in dog (dosed at 2.0 mpk po ); conditions: in vivo, 2.0 mg/kg
[13] = Plasma clearance in dog (dosed at 0.5 mpk iv and 2.0 mpk orally); type: ADME, organism-based, Canis lupus familiaris; conditions: 0.5 mg/kg, read-out: Clp
[14] = Half life in dog (dosed at 0.5 mpk iv and 2.0 mpk orally); type: ADME, organism-based, Canis lupus familiaris; conditions: in vivo
[15] = Oral bioavailability in dog (dose 0.5 mg/kg i.v. and 2.0 mg/kg p.o.); type: ADME, organism-based, Canis lupus familiaris; conditions: in vivo
[16] = Half life in monkey (dosed at 0.5 mpk iv and 2.0 mpk orally); type: ADME, organism-based; conditions: cercopithecidae, in vivo
[17] = Oral AUCN in monkey (dosed at 0.5 mpk iv ); type: ADME, organism-based; conditions: cercopithecidae, in vivo, 0.5 mg/kg
[18] = Plasma clearance in monkey (dosed at 0.5 mpk iv and 2.0 mpk orally); type: ADME, organism-based; conditions: cercopithecidae, 0.5 mg/kg, read-out: Clp
[19] = Oral bioavailability in monkey (dosed at 0.5 mpk iv and 2.0 mpk orally); type: ADME, organism-based; conditions: cercopithecidae, in vivo, 2 mg/kg
[20] = target: T1, C-C chemokine receptor type 5; assay: Inhibitory concentration of compound to displace GP120 from […] chemokine receptor 5; remark: listed apart in the source
[21] = tested on: Rattus norvegicus; assay: Area under curve in rat after peroral administration; type: ADME, organism-based; conditions: in vivo, po

T1 sequence (P51681 whole entry): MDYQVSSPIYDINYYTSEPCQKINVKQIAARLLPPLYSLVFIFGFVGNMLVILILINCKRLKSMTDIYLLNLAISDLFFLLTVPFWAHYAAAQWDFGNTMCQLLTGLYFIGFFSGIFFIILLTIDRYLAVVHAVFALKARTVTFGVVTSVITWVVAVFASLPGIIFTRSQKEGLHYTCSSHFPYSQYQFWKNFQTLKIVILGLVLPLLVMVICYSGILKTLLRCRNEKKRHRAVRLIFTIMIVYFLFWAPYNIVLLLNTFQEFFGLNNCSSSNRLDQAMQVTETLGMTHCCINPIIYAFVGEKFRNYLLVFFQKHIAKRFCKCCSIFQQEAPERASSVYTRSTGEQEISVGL

Row | SMILES | half-life [1] [min] | AUC N [4] [uM hr dose-1] | IC90 [7] [nM] | clearance [8] [mL/min/kg] | bioavailability [9] [%] | IC50 [10] [nM] | IC95 [2] [nM] | IC95 [5] [nM] | further results
1 | CCn1nc(Cc2ccccc2)cc1C1CCN(C[C@H]2CN([C@@](C)(C(=O)O)C(C)C)C[C@@H]2c2cccc(F)c2)CC1 |  |  | 300 |  |  | 1.6 |  |  | 
2 | CCn1nc(Cc2ccccc2)cc1C1CCN(C[C@H]2CN([C@@H](C(=O)O)C(C)(C)C)C[C@@H]2c2cccc(F)c2)CC1 | 47.4 | 3.7 | < 0.14 | 5.7 | 71 | 0.8 |  |  | AUC N [12]: 1 uM hr dose-1; clearance [13]: 13 mL/min/kg; half-life [14]: 38.4 min; bioavailability [15]: 44%
3 | CCn1nc(Cc2ccccc2)cc1C1CCN(C[C@H]2CN([C@H](CC3CCC3)C(=O)O)C[C@@H]2c2cccc(F)c2)CC1 | 42.6 | 0.05 | 0.4 |  | 7.3 | 1.2 | < 0.8 | 35 | clearance [11]: 46 mL/min/kg
4 | CC[C@H](C)[C@H](C(=O)O)N1C[C@H](CN2CCC(c3cc(Cc4ccccc4)nn3CC)CC2)[C@@H](c2cccc(F)c2)C1 |  |  | 0.4 |  |  | 0.9 |  |  | 
5 | CCn1nc(Cc2ccccc2)cc1C1CCN(C[C@H]2CN([C@H](CC3CC3)C(=O)O)C[C@@H]2c2cccc(F)c2)CC1 | 15 | 0.03 | 0.4 |  | 8.1 | 1.2 | < 8 | 31 | clearance [11]: 81 mL/min/kg
6 | CCn1nc(Cc2ccccc2)cc1C1CCN(C[C@H]2CN([C@@H](C(=O)O)C3CCCCC3)C[C@@H]2c2cccc(F)c2)CC1 |  |  | 0.4 |  |  | 1.6 |  |  | 
7 | CCn1nc(Cc2ccccc2)cc1C1CCN(C[C@H]2CN([C@@H](C(=O)O)C3CCCCC3)C[C@@H]2c2ccccc2)CC1 |  |  | 0.4 |  |  |  | < 8 | < 8 | IC50 [20]: 2 nM; AUC N [21]: 0.02 uM hr dose-1
8 | CCn1nc(Cc2ccccc2)cc1C1CCN(C[C@H]2CN([C@](C)(C(=O)O)C(C)C)C[C@@H]2c2cccc(F)c2)CC1 | 44.4 | 0.62 | > 300 | 10 | 21 | 5.5 |  |  | Vdss [3]: 0.43 L/kg
9 | CCC(CC)[C@H](C(=O)O)N1C[C@H](CN2CCC(c3cc(Cc4ccccc4)nn3CC)CC2)[C@@H](c2cccc(F)c2)C1 | 35.4 | 0.8 | 0.4 | 19 | 52 | 0.9 |  |  | 

The next lines start with results.

Row | half-life [1] [min] | AUC N [4] [uM hr dose-1] | IC90 [7] [nM] | clearance [8] [mL/min/kg] | bioavailability [9] [%] | IC50 [10] [nM] | SMILES | IC95 [2] [nM] | IC95 [5] [nM] | further results
10 | 72 | 0.13 | 3.7 | 43 | 17 |  | CCn1nc(Cc2ccccc2)cc1C1CCN(C[C@H]2CN([C@H](CC(C)C)C(=O)O)C[C@@H]2c2ccccc2)CC1 | < 8 | 125 | Vdss [3]: 2.1 L/kg; IC50 [6]: 2.9 nM
11 | 336 | 0.45 | 11 |  | 17 |  | CCn1nc(Cc2ccccc2)cc1C1CCN(C[C@H]2CN([C@@H](C(=O)O)C(C)C)C[C@@H]2c2ccccc2)CC1 |  |  | IC50 [6]: 2.8 nM; clearance [11]: 12.6 mL/min/kg
12 | 84 | 1.1 | 3.7 | 3.2 | 11 | 1.5 | CCn1nc(Cc2ccccc2)cc1C1CCN(C[C@H]2CN([C@@H](C(=O)O)C(C)C)C[C@@H]2c2cccc(F)c2)CC1 | 22 | 350 | AUC N [12]: 1.9 uM hr dose-1; clearance [13]: 3.5 mL/min/kg; half-life [14]: 204 min; half-life [16]: 78 min; AUC N [17]: 0.08 uM hr dose-1; clearance [18]: 20 mL/min/kg; bioavailability [15]: 20%; bioavailability [19]: 4.7%
13 | 60 | 0.06 | 3.7 |  | 11 | 1.6 | CCn1nc(Cc2ccccc2)cc1C1CCN(C[C@H]2CN([C@@H](C(=O)O)C3CCC3)C[C@@H]2c2ccccc2)CC1 |  |  | clearance [11]: 60 mL/min/kg
14 | 32.4 | 0.16 | < 0.14 | 25 | 13 | 0.8 | CC[C@@H](C)[C@H](C(=O)O)N1C[C@H](CN2CCC(c3cc(Cc4ccccc4)nn3CC)CC2)[C@@H](c2cccc(F)c2)C1 |  |  | 
